Values of other authors in article PMC9924909 (Brain, 2022).
Where two headings read alike, the source gives them in different places.

Assays:
[1] = cited from earlier work
[2] = system: patients with GD3; conditions: cited from earlier work

Structure (SMILES)	distribution to the brain [1]	effect on neurological symptoms [2]	effect on neurological symptoms ([2]; listed as miglustat)
CCCCCCCC(=O)N[C@H](CN1CCCC1)[C@H](O)c1ccc2c(c1)OCCO2 [Eliglustat]	excluded from the brain		
CCCCN1C[C@H](O)[C@@H](O)[C@H](O)[C@H]1CO [Miglustat]	partially distributed to the brain	ineffective for neurological symptoms	no clinical benefit
